Measurements published in US8822503B2, “2-pyridone compounds” (Taisho Pharmaceutical Co., Ltd, priority 2009, dated 2014).

molecular target: T1, human liver GK (Homo sapiens, UniProt P35557); assay: GK activation test; format: biochemical; details: test compound concentration needed to activate 50% of maximum activation ability; 4 mM 14C-labeled glucose, 2 mM ATP, room temperature, 20 minutes
T1 construct: GST (glutathione S-transferase) (N); made in house; host or cells: E. coli
T1 sequence (P35557 1-466 isoform P35557-2): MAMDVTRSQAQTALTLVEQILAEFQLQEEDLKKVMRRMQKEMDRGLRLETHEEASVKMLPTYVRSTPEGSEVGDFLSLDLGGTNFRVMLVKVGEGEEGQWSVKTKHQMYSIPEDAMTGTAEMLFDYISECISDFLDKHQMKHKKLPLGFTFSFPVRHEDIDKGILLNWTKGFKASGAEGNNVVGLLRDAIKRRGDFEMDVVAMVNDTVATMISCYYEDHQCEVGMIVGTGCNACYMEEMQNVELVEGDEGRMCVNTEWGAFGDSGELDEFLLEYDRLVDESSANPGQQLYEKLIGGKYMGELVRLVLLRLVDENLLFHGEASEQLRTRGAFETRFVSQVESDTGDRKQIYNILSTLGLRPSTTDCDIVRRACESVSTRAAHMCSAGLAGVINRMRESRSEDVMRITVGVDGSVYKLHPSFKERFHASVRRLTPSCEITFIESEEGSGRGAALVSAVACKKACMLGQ
Description: The GK activation test for the test compounds was performed by the method of Irwin A. Rose et al. (J. Biol. Chem. 1964 January; 239:12-7) with partial modifications.
The enzyme source used in this assay, human liver GK, was expressed in E. coli as a fusion protein with GST (glutathione S-transferase) added to the amino terminus and was purified using Glutathione Sepharose 4B (Amersham Biosciences).
The test was carried out using flat-bottom 96-well plates (Sumitomo Bakelite Co., Ltd.). A solution of the test compound in dimethyl sulfoxide (DMSO) and DMSO as a control were added to each well of the plates at a final DMSO concentration of 1%. 25 mM Hepes-KOH (pH=7.1), 25 mM KCl, 2 mM MgCl2, 2 mM ATP, 4 mM ^14C-labeled glucose (Muromachi Yakuhin) and 1 mM DTT (dithiothreitol) were further added at the indicated final concentrations, respectively. Finally, human liver GK was added at 0.24 microgram per well and the reaction was started. The reaction was carried out at room temperature.
After 20 minutes, AG1-X4 resin (BioRad) suspended in 25 mM Hepes-KOH (pH=7.1) was added and the reaction product, labeled glucose 6-phosphate, was allowed to bind thereto. The whole volume was transferred to MultiScreen plates (Millipore) and the resin was washed with water. Thereafter, the labeled glucose 6-phosphate binding to the resin was eluted with a 0.5 M NaCl solution. The labeling activity of the eluted labeled glucose 6-phosphate was measured as an index of GK activity.
The GK activity maximally activated by the test compound was described as maximum activation ability, and the test compound concentration needed to activate 50% of that ability was described as EC50.

| SMILES | EC50 [µM] |
| --- | --- |
| CSc1ccc([C@]2(c3ccc(C)c(=O)[nH]3)C[C@@H]2C2CCCC2)cc1Cl (relative stereo) [Example 3-1, trans-6-{-1-[3-Chloro-4-(methylsulfanyl)phenyl]-2-cyclopentylcyclopropyl}-3-methylpyridin-2(1H)-one] | 0.5 to 3 |
| Cc1ccc([C@@]2(c3ccc(S(C)(=O)=O)c(Cl)c3)C[C@@H]2C2CCCC2)[nH]c1=O (relative stereo) [Example 3-2, trans-6-{1-[3-Chloro-4-(methylsulfonyl)phenyl]-2-cyclopentylcyclopropyl}-3-methylpyridin-2(1H)-one] | 0.5 to 3 |
| CSc1ccc([C@]2(c3ccc(C)c(=O)[nH]3)C[C@@H]2C2CCCC2)cc1 (relative stereo) [Example 3-3, trans-6-{2-Cyclopentyl-1-[4-(methylsulfanyl)phenyl]cyclopropyl}-3-methylpyridin-2(1H)-one] | 0.5 to 3 |
| Cc1ccc([C@@]2(c3ccc(S(C)(=O)=O)cc3)C[C@@H]2C2CCCC2)[nH]c1=O (relative stereo) [Example 3-4, trans-6-{2-Cyclopentyl-1-[4-(methylsulfonyl)phenyl]cyclopropyl}-3-methylpyridin-2(1H)-one] | 3 to 10 |
| CC(C)(C)c1ccc(C(C[C@H]2CCC(=O)N2)c2ccc(Cl)c(=O)[nH]2)cc1 (single isomer, unassigned) [Example 4-69] | 3 to 10 |
| CC(C)(C)c1ccc(C(C[C@H]2CCC(=O)N2)c2ccc(Cl)c(=O)[nH]2)cc1 (single isomer, unassigned) [Example 4-70] | 0.5 to 3 |
| CC(C)(C)c1ccc(C(C[C@@H]2CCC(=O)N2)c2ccc(Cl)c(=O)[nH]2)cc1 (single isomer, unassigned) [Example 4-76] | 3 to 10 |
| CC(C)(C)c1ccc(C(C[C@@H]2CCC(=O)N2)c2ccc(Cl)c(=O)[nH]2)cc1 (single isomer, unassigned) [Example 4-77] | 3 to 10 |
| CC(C)c1ccc(C(C[C@H]2CCC(=O)N2)c2ccc(Cl)c(=O)[nH]2)cc1 (single isomer, unassigned) [Example 4-85] | 0.5 to 3 |
| CC(C)c1ccc(C(C[C@H]2CCC(=O)N2)c2ccc(Cl)c(=O)[nH]2)cc1Cl (single isomer, unassigned) [Example 4-86] | 0.01 to 0.5 |
| CC(C)(C)c1ccc(C(C[C@H]2CCN(C(=O)C3CC3)C2)c2ccc(Cl)c(=O)[nH]2)cc1 (single isomer, unassigned) [Example 4-96] | 0.01 to 0.5 |
| CC(C)(C)c1ccc(C(C[C@H]2CCN(C(=O)C3CC3)C2)c2ccc(Cl)c(=O)[nH]2)cc1 (single isomer, unassigned) [Example 4-97] | 3 to 10 |
| CCOc1ccc(C(C[C@H]2CCC(=O)N2)c2ccc(Cl)c(=O)[nH]2)cc1 (single isomer, unassigned) [Example 4-235] | 3 to 10 |
| CCOc1ccc(C(C[C@H]2CCC(=O)N2)c2ccc(Cl)c(=O)[nH]2)cc1C (single isomer, unassigned) [Example 4-239] | 0.5 to 3 |
| CCOc1ccc(C(C[C@H]2CCC(=O)N2)c2ccc(Cl)c(=O)[nH]2)cc1C (single isomer, unassigned) [Example 4-240] | 3 to 10 |
| CCCc1ccc(C(C[C@H]2CCC(=O)N2)c2ccc(C(F)(F)F)cc2)[nH]c1=O (single isomer, unassigned) [Example 4-242] | 0.5 to 3 |
| CCCc1ccc(C(C[C@H]2CCC(=O)N2)c2ccc(C(F)(F)F)cc2)[nH]c1=O (single isomer, unassigned) [Example 4-243] | 3 to 10 |
| COc1ccc(C(C[C@H]2CCC(=O)N2)c2ccc(C(C)(C)C)cc2)[nH]c1=O (single isomer, unassigned) [Example 4-244] | 0.5 to 3 |
| COc1ccc(C(C[C@H]2CCC(=O)N2)c2ccc(C(C)(C)C)cc2)[nH]c1=O (single isomer, unassigned) [Example 4-245] | 3 to 10 |
| CC(C)(C)c1ccc(C(C[C@H]2CCC(=O)N2)c2ccc(OC(F)F)c(=O)[nH]2)cc1 (single isomer, unassigned) [Example 4-246] | 0.5 to 3 |
| CC(C)(C)c1ccc(C(C[C@H]2CCC(=O)N2)c2ccc(OC(F)F)c(=O)[nH]2)cc1 (single isomer, unassigned) [Example 4-247] | 3 to 10 |

Continued, values first:

| EC50 [µM] | SMILES |
| --- | --- |
| 0.01 to 0.5 | CCOc1ccc(C(C[C@H]2CCC(=O)N2)c2ccc(C3CC3)c(=O)[nH]2)cc1Cl (single isomer, unassigned) [Example 4-87] |
| 0.5 to 3 | O=C1CC[C@H](CC(c2ccc3c(c2)CCO3)c2ccc(C3CC3)c(=O)[nH]2)N1 (single isomer, unassigned) [Example 4-209] |
| 0.5 to 3 | O=C1CC[C@H](CC(c2ccc(F)c(Cl)c2)c2ccc(C3CC3)c(=O)[nH]2)N1 (single isomer, unassigned) [Example 4-211] |
| 0.5 to 3 | Cc1cc(C(C[C@H]2CCC(=O)N2)c2ccc(C3CC3)c(=O)[nH]2)ccc1Cl (single isomer, unassigned) [Example 4-213] |
| 3 to 10 | Cc1cc(C(C[C@H]2CCC(=O)N2)c2ccc(C3CC3)c(=O)[nH]2)ccc1Cl (single isomer, unassigned) [Example 4-214] |
| 0.01 to 0.5 | Cc1ccc(C(C[C@H]2CCC(=O)N2)c2ccc(C3CC3)c(=O)[nH]2)cc1Cl (single isomer, unassigned) [Example 4-215] |
| 3 to 10 | Cc1ccc(C(C[C@H]2CCC(=O)N2)c2ccc(C3CC3)c(=O)[nH]2)cc1Cl (single isomer, unassigned) [Example 4-216] |
| 0.5 to 3 | O=C1CC[C@H](CC(c2ccc(Cl)c(F)c2)c2ccc(C3CC3)c(=O)[nH]2)N1 (single isomer, unassigned) [Example 4-217] |
| 0.5 to 3 | O=C1CC[C@H](CC(c2ccc(C(F)(F)F)c(F)c2)c2ccc(C3CC3)c(=O)[nH]2)N1 (single isomer, unassigned) [Example 4-219] |
| 0.5 to 3 | O=C1CC[C@H](CC(c2ccc(Cl)c(C(F)(F)F)c2)c2ccc(C3CC3)c(=O)[nH]2)N1 (single isomer, unassigned) [Example 4-221] |
| 3 to 10 | O=C1CC[C@H](CC(c2ccc(Cl)c(C(F)(F)F)c2)c2ccc(C3CC3)c(=O)[nH]2)N1 (single isomer, unassigned) [Example 4-222] |
| 0.5 to 3 | Cc1cc(C(C[C@H]2CCC(=O)N2)c2ccc(C3CC3)c(=O)[nH]2)ccc1F (single isomer, unassigned) [Example 4-223] |
| 3 to 10 | Cc1cc(C(C[C@H]2CCC(=O)N2)c2ccc(C3CC3)c(=O)[nH]2)ccc1F (single isomer, unassigned) [Example 4-224] |
| 0.01 to 0.5 | O=C1CC[C@H](CC(c2ccc(C(F)F)c(Cl)c2)c2ccc(C3CC3)c(=O)[nH]2)N1 (single isomer, unassigned) [Example 4-225] |
| 3 to 10 | O=C1CC[C@H](CC(c2ccc(C(F)F)c(Cl)c2)c2ccc(C3CC3)c(=O)[nH]2)N1 (single isomer, unassigned) [Example 4-226] |
| 0.5 to 3 | COc1cc(C(C[C@H]2CCC(=O)N2)c2ccc(C3CC3)c(=O)[nH]2)ccc1Cl (single isomer, unassigned) [Example 4-227] |
| 0.5 to 3 | O=C1CC[C@H](CC(c2ccc(OC(F)F)cc2)c2ccc(C3CC3)c(=O)[nH]2)N1 (single isomer, unassigned) [Example 4-229] |
| 3 to 10 | O=C1CC[C@H](CC(c2ccc(OC(F)F)cc2)c2ccc(C3CC3)c(=O)[nH]2)N1 (single isomer, unassigned) [Example 4-230] |
| 0.01 to 0.5 | Cc1cc(C(C[C@H]2CCC(=O)N2)c2ccc(C3CC3)c(=O)[nH]2)ccc1C(F)F (single isomer, unassigned) [Example 4-231] |
| 3 to 10 | Cc1cc(C(C[C@H]2CCC(=O)N2)c2ccc(C3CC3)c(=O)[nH]2)ccc1C(F)F (single isomer, unassigned) [Example 4-232] |
| 0.5 to 3 | O=C1CC[C@H](CC(c2ccc(C(F)F)c(F)c2)c2ccc(C3CC3)c(=O)[nH]2)N1 (single isomer, unassigned) [Example 4-233] |
| 3 to 10 | O=C1CC[C@H](CC(c2ccc(C(F)F)c(F)c2)c2ccc(C3CC3)c(=O)[nH]2)N1 (single isomer, unassigned) [Example 4-234] |
| 0.5 to 3 | CCOc1ccc(C(C[C@H]2CCC(=O)N2)c2ccc(Cl)c(=O)[nH]2)cc1C(F)(F)F (single isomer, unassigned) [Example 4-237] |
